Assay results as given in patent US20240279207A1, “SUBSTITUTED ACYL SULFONAMIDES FOR TREATING CANCER” (The Broad Institute, Inc., priority 2020, published 2024).
Values belong to the compound of their own block, whether it stands above or below them.

How the values were obtained:
[1] = target: T1, Recombinant human His-tagged Kat6a protein (amino acids 194-810) (Homo sapiens, UniProt Q92794); assay: Kat6a activity assay (TR-FRET, acetylation of Histone-H4-derived peptide); assay type: biochemical; conditions: 60 mins at 22° C., 220 nM H4 peptide, 600 nM Acetyl Coenzyme A, read-out: KAT6A - DPF/HAT domain IC50 [mol/l] (arithmetic mean)
T1 construct: Kat6a protein (amino acids 194-810); His
T1 sequence (Q92794 194-810): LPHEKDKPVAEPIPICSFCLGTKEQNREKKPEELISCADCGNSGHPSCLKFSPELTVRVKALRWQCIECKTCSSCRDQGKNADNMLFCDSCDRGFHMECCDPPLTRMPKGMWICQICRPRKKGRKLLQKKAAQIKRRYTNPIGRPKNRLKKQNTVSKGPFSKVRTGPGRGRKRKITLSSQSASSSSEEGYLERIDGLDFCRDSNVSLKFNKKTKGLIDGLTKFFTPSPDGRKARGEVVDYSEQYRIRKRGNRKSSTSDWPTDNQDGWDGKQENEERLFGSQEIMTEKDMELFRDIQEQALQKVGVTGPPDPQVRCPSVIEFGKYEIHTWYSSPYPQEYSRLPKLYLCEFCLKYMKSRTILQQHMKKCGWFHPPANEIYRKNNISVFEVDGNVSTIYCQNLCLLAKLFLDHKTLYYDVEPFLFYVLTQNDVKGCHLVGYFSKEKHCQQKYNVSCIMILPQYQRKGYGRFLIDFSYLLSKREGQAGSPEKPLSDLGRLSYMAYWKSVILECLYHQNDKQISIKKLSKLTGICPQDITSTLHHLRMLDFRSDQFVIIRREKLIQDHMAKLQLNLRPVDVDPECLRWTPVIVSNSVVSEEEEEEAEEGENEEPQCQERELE

[2] = target: T2, Recombinant human GST-tagged Kat6b protein (431-end) (Homo sapiens, UniProt Q8WYB5); assay: Kat6b activity assay (TR-FRET, acetylation of Histone-H4-derived peptide); assay type: biochemical; conditions: 30 mins at 22° C., 500 nM H4 peptide, 600 nM Acetyl Coenzyme A, read-out: KAT6B activity assay IC50 [mol/l] (arithmetic mean)
T2 construct: Kat6b protein (431-end, N-terminal GST-tag); GST (N)
T2 sequence (Q8WYB5 431-2073): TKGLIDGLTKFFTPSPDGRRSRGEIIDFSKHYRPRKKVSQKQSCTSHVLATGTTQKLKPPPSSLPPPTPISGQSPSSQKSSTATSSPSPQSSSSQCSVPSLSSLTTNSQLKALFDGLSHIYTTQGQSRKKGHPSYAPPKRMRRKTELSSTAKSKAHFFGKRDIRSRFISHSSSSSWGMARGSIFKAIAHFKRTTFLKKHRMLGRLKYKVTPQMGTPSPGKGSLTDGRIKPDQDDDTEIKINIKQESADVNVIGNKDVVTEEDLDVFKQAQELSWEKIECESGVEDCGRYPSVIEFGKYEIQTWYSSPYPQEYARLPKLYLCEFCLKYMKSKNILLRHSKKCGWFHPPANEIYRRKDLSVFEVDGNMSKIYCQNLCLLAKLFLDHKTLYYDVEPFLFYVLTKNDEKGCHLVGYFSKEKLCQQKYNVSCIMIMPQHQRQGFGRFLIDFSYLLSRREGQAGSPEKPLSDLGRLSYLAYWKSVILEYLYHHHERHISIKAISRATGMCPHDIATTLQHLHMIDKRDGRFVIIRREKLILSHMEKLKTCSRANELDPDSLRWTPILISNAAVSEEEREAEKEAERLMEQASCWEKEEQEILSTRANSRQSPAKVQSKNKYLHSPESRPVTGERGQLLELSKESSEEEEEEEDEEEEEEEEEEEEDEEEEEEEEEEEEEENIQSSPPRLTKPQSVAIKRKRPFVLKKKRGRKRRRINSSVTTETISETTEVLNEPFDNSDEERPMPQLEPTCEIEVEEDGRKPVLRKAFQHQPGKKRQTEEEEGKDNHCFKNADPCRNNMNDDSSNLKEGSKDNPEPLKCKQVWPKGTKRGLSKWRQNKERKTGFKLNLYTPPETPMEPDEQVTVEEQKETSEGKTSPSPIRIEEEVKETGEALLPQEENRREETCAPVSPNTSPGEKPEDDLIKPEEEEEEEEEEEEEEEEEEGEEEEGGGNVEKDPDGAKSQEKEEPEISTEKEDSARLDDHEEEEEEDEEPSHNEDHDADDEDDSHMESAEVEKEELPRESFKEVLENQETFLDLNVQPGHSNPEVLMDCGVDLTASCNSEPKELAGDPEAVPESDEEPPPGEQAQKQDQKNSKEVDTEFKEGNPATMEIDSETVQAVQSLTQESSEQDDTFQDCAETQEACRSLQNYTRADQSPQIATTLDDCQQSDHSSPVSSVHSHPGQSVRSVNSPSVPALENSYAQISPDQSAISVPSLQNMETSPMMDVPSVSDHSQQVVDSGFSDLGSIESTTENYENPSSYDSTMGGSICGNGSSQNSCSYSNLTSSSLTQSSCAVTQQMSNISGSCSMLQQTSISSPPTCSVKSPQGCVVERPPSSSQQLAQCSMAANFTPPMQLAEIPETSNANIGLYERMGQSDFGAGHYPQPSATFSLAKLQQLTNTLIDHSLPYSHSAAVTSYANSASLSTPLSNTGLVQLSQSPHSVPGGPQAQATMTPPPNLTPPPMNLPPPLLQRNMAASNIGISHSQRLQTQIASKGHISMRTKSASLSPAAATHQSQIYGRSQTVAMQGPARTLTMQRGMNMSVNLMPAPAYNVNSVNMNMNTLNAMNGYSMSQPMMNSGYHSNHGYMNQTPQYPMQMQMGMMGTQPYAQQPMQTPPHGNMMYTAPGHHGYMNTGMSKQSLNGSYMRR
Experimental: Kat6b inhibitory activities of the compounds described in the present invention were quantified using a Fluorescence Resonance Energy Transfer (TR-FRET) assay which measures acetylation of a synthetic, biotinylated Histone-H4-derived peptide by the enzyme.
In this case 50 nl DMSO were used instead of compounds. […] IC50 values were determined by regression analysis based on a 4 parameter equation (minimum, maximum, ICM, Hill; Y=Max+(Min−Max)/(1+(X/ICso) Hill) using the Screener Software (Genedata).

[3] = test system: ESR1 transcription in MVLN cells; assay: MVLN reporter assay: repression of ESR1 transcription (luciferase signal); assay type: cell-based; conditions: Homo sapiens, MVLN, 24 h, luciferase signal after 24 h, read-out: MVLN reporter assay, IC50 [M] (arithmetic mean)
Procedure, shortened: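 MVLN cells, expressing ER and stably carrying a vitellogenin A2 ERE-luciferase reporter, treated with compound in duplicate; luciferase read after 24 h with Steadylite plus. Cell density checked in parallel by Alamar Blue fluorescence (530/590 nm, 2 h) before the luciferase read.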

ZR-75-1 cells = assay: ZR-75-1 proliferation assay; assay type: cell-based; conditions: Homo sapiens, ZR-75-1, 144 h, Alamar Blue, read-out: ZR75-1 proliferation assay, EC50 [M] (arithmetic mean)
Excerpt: For compound characterization cell survival assays were routinely run in two cell lines. ZR-75-1 is a breast carcinoma cell line containing a focal KAT6A amplification and high KAT6A protein expression. Proliferation of this cell line is inhibited upon treatment with KAT6A inhibitors. As a negative control cell line MDA-MB-436 were used. These cells carry a […] deletion of the KAT6A gene, have a low KAT6A protein expression and are not growth inhibited upon treatment with KAT6A inhibitors.
For measurements cell lines were plated at the below indicated concentration per […] in 96-well plates in a humidified incubator at 37° C. and 5% CO2.
ZR-75-1 (ATCC, CRL-1500; breast carcinoma); 3000 cells per well; culture medium: RPMI 1640 (Biochrom #FG 1215) medium containing 2.5% FBS (Biochrom #S0615).
Each sample was prepared as triplicate and rim wells were excluded. Plates were incubated at 37° C. and 5% CO2 for 144 h. Cell viability was measured by adding 10 μL of Alamar Blue Reagent (Invitrogen #DAL 1100) and plates were incubated for 2 h at 37° C. and 5% CO2. Fluorescence was measured at 590 nm wavelength with a Tecan Spark or Victor X3 MTP-Reader (PerkinElmer).

LCLC97TM1 = LCLC97TM1 proliferation assay; assay type: cell-based; conditions: Homo sapiens, LCLC-97TM1, LCLC97TM1; read-out: LCLC97TM1 proliferation assay; EC50 [M] (arithmetic mean)
MDA-MB-436 cells = assay: MDA-MB-436 proliferation assay (negative control cell line); assay type: cell-based; conditions: Homo sapiens, 144 h, Alamar Blue, read-out: MDA-MB-436 proliferation assay, EC50 [M] (arithmetic mean)
Procedure, shortened: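 MDA-MB-436 cells (KAT6A deletion, low KAT6A protein) seeded at 3000 cells/well in DMEM/Ham's F12 with 2.5% FBS, treated in triplicate for 144 h at 37° C, 5% CO2. Viability read by Alamar Blue fluorescence at 590 nm after 2 h.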

SMILES: CCOc1ccccc1S(=O)(=O)NC(=O)c1cc2ccc(N3CC(F)C3)cc2o1 [Example 107, N-(2-Ethoxybenzene-1-sulfonyl)-6-(3-fluoroazetidin-1-yl)-1-benzofuran-2-carboxamide]
IC50 [1]: 275 nM
IC50 [2]: 853 nM
IC50 [3]: 1.33e-07 M
EC50 (ZR-75-1 cells): 4.1e-07 M
EC50 (LCLC97TM1): 9.16e-07 M

SMILES: CCOc1ccccc1S(=O)(=O)NC(=O)c1cc2ccc(N3CC4(COC4)C3)cc2o1 [Example 125, N-(2-ethoxybenzene-1-sulfonyl)-6-(2-oxa-6-azaspiro[3.3]heptan-6-yl)-1-benzofuran-2-carboxamide]
IC50 [1]: > 20000 nM
IC50 [3]: > 2e-05 M
EC50 (ZR-75-1 cells): > 2e-05 M
EC50 (LCLC97TM1): > 2e-05 M
EC50 (MDA-MB-436 cells): > 2e-05 M

SMILES: O=C(NS(=O)(=O)c1cccc2ccc(Cl)nc12)c1cc2c(F)cc(N3CCC3)cc2o1 [Example 132, 6-(Azetidin-1-yl)-N-(2-chloroquinoline-8-sulfonyl)-4-fluoro-1-benzofuran-2-carboxamide]
IC50 [1]: 14.1 nM
IC50 [3]: 5.41e-08 M
EC50 (ZR-75-1 cells): 1.08e-07 M
EC50 (LCLC97TM1): 1.36e-07 M
EC50 (MDA-MB-436 cells): 1.22e-05 M

SMILES: CCCOc1ccccc1S(=O)(=O)NC(=O)c1cc2c(F)cc(N3CCC3)cc2o1 [Example 133, 6-(Azetidin-1-yl)-4-fluoro-N-(2-propoxybenzene-1-sulfonyl)-1-benzofuran-2-carboxamide]
IC50 [1]: 21.8 nM
IC50 [3]: 6.41e-08 M
EC50 (ZR-75-1 cells): 1.61e-07 M
EC50 (LCLC97TM1): 6.64e-07 M
EC50 (MDA-MB-436 cells): > 2e-05 M

SMILES: Cc1ccc(OC(C)C)c(S(=O)(=O)NC(=O)c2cc3c(F)cc(N4CCC4)cc3o2)c1 [Example 134, 6-(Azetidin-1-yl)-4-fluoro-N-{5-methyl-2-[(propan-2-yl)oxy]benzene-1-sulfonyl}-1-benzofuran-2-carboxamide]
IC50 [1]: 18.3 nM
IC50 [3]: 7.44e-08 M
EC50 (ZR-75-1 cells): 8.18e-08 M
EC50 (LCLC97TM1): 3.76e-07 M
EC50 (MDA-MB-436 cells): > 2e-05 M

SMILES: CCOc1ccc(CC)cc1S(=O)(=O)NC(=O)c1cc2c(F)cc(N3CC(F)C3)cc2o1 [Example 153, N-(2-ethoxy-5-ethylbenzene-1-sulfonyl)-4-fluoro-6-(3-fluoroazetidin-1-yl)-1-benzofuran-2-carboxamide]
IC50 [1]: 10.5 nM
IC50 [3]: 4.69e-08 M
EC50 (ZR-75-1 cells): 4.98e-08 M
EC50 (LCLC97TM1): 1.6e-07 M
EC50 (MDA-MB-436 cells): > 2e-05 M

SMILES: O=C(NS(=O)(=O)c1cccc2ccc(Cl)nc12)c1cc2c(F)cc(N3CC(F)C3)cc2o1 [Example 154, N-(2-Chloroquinoline-8-sulfonyl)-4-fluoro-6-(3-fluoroazetidin-1-yl)-1-benzofuran-2-carboxamide]
IC50 [1]: 13.4 nM
IC50 [3]: 7.11e-08 M
EC50 (ZR-75-1 cells): 4.95e-08 M
EC50 (LCLC97TM1): 2.25e-07 M
EC50 (MDA-MB-436 cells): > 2e-05 M

SMILES: CC(C)Oc1ccccc1S(=O)(=O)NC(=O)c1cc2c(F)cc(N3CC(F)C3)cc2o1 [Example 155, 4-Fluoro-6-(3-fluoroazetidin-1-yl)-N-{2-[(propan-2-yl)oxy]benzene-1-sulfonyl}-1-benzofuran-2-carboxamide]
IC50 [1]: 36.7 nM
IC50 [3]: 7.14e-08 M
EC50 (ZR-75-1 cells): 7.48e-08 M
EC50 (LCLC97TM1): 4.28e-07 M
EC50 (MDA-MB-436 cells): > 2e-05 M

SMILES: COc1cc(C)ccc1S(=O)(=O)NC(=O)c1cc2c(F)cc(N3CCC3)cc2o1 [Example 156, 6-(Azetidin-1-yl)-4-fluoro-N-(2-methoxy-4-methylbenzene-1-sulfonyl)-1-benzofuran-2-carboxamide]
IC50 [1]: 19.9 nM
IC50 [3]: 7.43e-08 M
EC50 (ZR-75-1 cells): 1.34e-07 M
EC50 (LCLC97TM1): 6.6e-07 M
EC50 (MDA-MB-436 cells): > 2e-05 M

SMILES: Cc1ccc(OC(C)C)c(S(=O)(=O)NC(=O)c2cc3c(F)cc(N4CC(F)C4)cc3o2)c1 [Example 157, 4-Fluoro-6-(3-fluoroazetidin-1-yl)-N-{5-methyl-2-[(propan-2-yl)oxy]benzene-1-sulfonyl}-1-benzofuran-2-carboxamide]
IC50 [1]: 37.3 nM
IC50 [3]: 7.51e-08 M
EC50 (ZR-75-1 cells): 1.1e-07 M
EC50 (LCLC97TM1): 7.07e-07 M
EC50 (MDA-MB-436 cells): > 2e-05 M

SMILES: CCc1ccc2cccc(S(=O)(=O)NC(=O)c3cc4c(F)cc(N5CCC5)cc4o3)c2n1 [Example 171, 6-(Azetidin-1-yl)-N-(2-ethylquinoline-8-sulfonyl)-4-fluoro-1-benzofuran-2-carboxamide]
IC50 [1]: 15.7 nM
IC50 [3]: 6.68e-08 M
EC50 (ZR-75-1 cells): 3.98e-07 M
EC50 (LCLC97TM1): 4.4e-07 M
EC50 (MDA-MB-436 cells): > 2e-05 M

The next lines start with results.

IC50 [1]: 8.25 nM
IC50 [3]: 4.72e-08 M
EC50 (MDA-MB-436 cells): > 2e-05 M
SMILES: COc1ccc(C2=CCOCC2)cc1S(=O)(=O)NC(=O)c1cc2c(F)cc(N3CCC3)cc2o1 [Example 196, 6-(azetidin-1-yl)-N-[5-(3,6-dihydro-2H-pyran-4-yl)-2-methoxybenzene-1-sulfonyl]-4-fluoro-1-benzofuran-2-carboxamide]
EC50 (ZR-75-1 cells): 1.44e-07 M
EC50 (LCLC97TM1): 8.1e-07 M

IC50 [1]: 7.7 nM
IC50 [3]: 1.79e-07 M
EC50 (MDA-MB-436 cells): 1.6e-06 M
SMILES: Cc1cc2c(c(S(=O)(=O)NC(=O)c3cc4c(F)cc(N5CCC5)cc4o3)c1C)OC(C)(C)C2 [Example 204, 6-(Azetidin-1-yl)-4-fluoro-N-(2,2,5,6-tetramethyl-2,3-dihydro-1-benzofuran-7-sulfonyl)-1-benzofuran-2-carboxamide]
EC50 (ZR-75-1 cells): 3.4e-07 M
EC50 (LCLC97TM1): 8.36e-07 M

IC50 [1]: 7.97 nM
IC50 [3]: 7.15e-08 M
EC50 (MDA-MB-436 cells): > 2e-05 M
SMILES: C=C(C)c1ccc(OC)c(S(=O)(=O)NC(=O)c2cc3c(F)cc(N4CCC4)cc3o2)c1 [Example 205, 6-(Azetidin-1-yl)-4-fluoro-N-[2-methoxy-5-(prop-1-en-2-yl)benzene-1-sulfonyl]-1-benzofuran-2-carboxamide]
EC50 (ZR-75-1 cells): 1.73e-07 M
EC50 (LCLC97TM1): 9.37e-07 M

IC50 [1]: 26.5 nM
IC50 [3]: 5.86e-08 M
EC50 (MDA-MB-436 cells): > 2e-05 M
SMILES: CCOc1ccc(C(F)(F)F)cc1S(=O)(=O)NC(=O)c1cc2c(F)cc(N3CCC3)cc2o1 [Example 209, 6-(azetidin-1-yl)-N-[2-ethoxy-5-(trifluoromethyl)phenyl]sulfonyl-4-fluoro-benzofuran-2-carboxamide]
EC50 (ZR-75-1 cells): 4.59e-08 M
EC50 (LCLC97TM1): 6.32e-07 M

IC50 [1]: 3.91 nM
IC50 [2]: 20.3 nM
IC50 [3]: 2.43e-08 M
SMILES: CC(C)c1ccc(OCC2CC2)c(S(=O)(=O)NC(=O)c2cc3c(F)cc(N4CCC4)cc3o2)c1 [Example 214, 6-(azetidin-1-yl)-N-[2-(cyclopropylmethoxy)-5-isopropyl-phenyl]sulfonyl-4-fluoro-benzofuran-2-carboxamide]
EC50 (ZR-75-1 cells): 4.47e-07 M
EC50 (LCLC97TM1): 5.77e-07 M

IC50 [1]: 7.18 nM
IC50 [3]: 7.43e-08 M
EC50 (MDA-MB-436 cells): > 2e-05 M
SMILES: CC(C)c1ccc(OCC(F)(F)F)c(S(=O)(=O)NC(=O)c2cc3c(F)cc(N4CCC4)cc3o2)c1 [Example 215, 6-(azetidin-1-yl)-4-fluoro-N-[5-isopropyl-2-(2,2,2-trifluoroethoxy)phenyl]sulfonyl-benzofuran-2-carboxamide]
EC50 (ZR-75-1 cells): 5.82e-07 M
EC50 (LCLC97TM1): 2.83e-06 M

IC50 [1]: 1.79 nM
IC50 [3]: 5.37e-08 M
EC50 (MDA-MB-436 cells): > 2e-05 M
SMILES: CC(C)(C)c1ccc(OCC2CC2)c(S(=O)(=O)NC(=O)c2cc3c(F)cc(N4CCC4)cc3o2)c1 [Example 226, 6-(Azetidin-1-yl)-N-[(5-(tert-butyl)-2-(cyclopropylmethoxy)phenyl)sulfonyl]-4-fluorobenzofuran-2-carboxamide]
EC50 (ZR-75-1 cells): 2.78e-08 M
EC50 (LCLC97TM1): 4.63e-08 M

IC50 [1]: 5.4 nM
IC50 [3]: 4.82e-08 M
EC50 (MDA-MB-436 cells): > 2e-05 M
SMILES: CC(C)(C)c1ccc(OCC(F)(F)F)c(S(=O)(=O)NC(=O)c2cc3c(F)cc(N4CCC4)cc3o2)c1 [Example 227, 6-(Azetidin-1-yl)-N-[(5-(tert-butyl)-2-(2,2,2-trifluoroethoxy)phenyl)sulfonyl]-4-fluorobenzofuran-2-carboxamide]
EC50 (ZR-75-1 cells): 7.19e-08 M
EC50 (LCLC97TM1): 1.22e-07 M
